Results from US20220281848A1, “PYRAZOLE-SUBSTITUTED PYRROLIDINONES AS HERBICIDES” (FMC Corporation, priority 2019, published 2022).

Assays:
Assay type in all cases: in vivo
[1] = test system: plants; assay: Test D post-emergence, other plants of Tables D2 and D4; conditions: for damage to plant (100=total damage to plant; 0=no damage to plant), ABUTH / damage to plant (100=total damage to plant; 0=no damage to plant), AMARE / damage to plant (100=total damage to plant; 0=no damage to plant), BIDPI / damage to plant (100=total damage to plant; 0=no damage to plant), BRAPL / damage to plant (100=total damage to plant; 0=no damage to plant), CYPES / damage to plant (100=total damage to plant; 0=no damage to plant), DIGSA / damage to plant (100=total damage to plant; 0=no damage to plant), ECHCG / damage to plant (100=total damage to plant; 0=no damage to plant), ELEIN / damage to plant (100=total damage to plant; 0=no damage to plant), EPHHL / damage to plant (100=total damage to plant; 0=no damage to plant), GLXMA / damage to plant (100=total damage to plant; 0=no damage to plant), IPOHE / damage to plant (100=total damage to plant; 0=no damage to plant), ORYSA / damage to plant (100=total damage to plant; 0=no damage to plant), PANMI / damage to plant (100=total damage to plant; 0=no damage to plant), SETFA / damage to plant (100=total damage to plant; 0=no damage to plant), SORVU: post-emergence
In short: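 Damage was rated visually from 0 (none) to 100 (total), at 20 DAA for pre-emergence and 15 d for post-emergence. Plants grew from safener-treated seed in a glasshouse at 24/18° C. or 20/16° C. day/night, 65% humidity, watered twice daily.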

[2] = test system: barnyardgrass (Echinochloa crus-galli, ECHCG); assay: Test A post-emergence, barnyardgrass; conditions: after 13 d
In short: (§1)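 Plants sown in standard soil were grown 8 d in a glasshouse (24/16 °C day/night, 14 h light, 65% humidity), then sprayed with compound in acetone/water (50:50) with 0.5% Tween 20 at 15.625, 62.5 or 250 g/ha. Damage was scored after 13 d (0 = none, 100 = total).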

[3] = test system: corn (Zea mays, ZEAMX); assay: Test A post-emergence, corn; conditions: after 13 d
In short: as §1

For `CN1CC(c2cc(C(F)(F)F)n(C)n2)C(C(=O)Nc2cccc(F)c2C(F)(F)F)C1=O` (racemic) [Compound 19], the “VERPE damage rating (100=total damage to plant; 0=no damage to plant)” value ([1]; VERPE, "Cereals" Postemergent, Rates 500, evaluated after 15 d) was 10, the “damage to plant (100=total damage to plant; 0=no damage to plant), ABUTH” value ([1]; rate 130, evaluated after 15 d) was 0 and the “damage to plant (100=total damage to plant; 0=no damage to plant), ABUTH” value ([1]; rate 250, evaluated after 15 d) was 10. The “damage to plant (100=total damage to plant; 0=no damage to plant), ABUTH” value ([1]; rate 500, evaluated after 15 d) was 20, the “damage to plant (100=total damage to plant; 0=no damage to plant), AMARE” value ([1]; rate 130, evaluated after 15 d) was 0 and the “damage to plant (100=total damage to plant; 0=no damage to plant), AMARE” value ([1]; rate 250, evaluated after 15 d) was 10. The “damage to plant (100=total damage to plant; 0=no damage to plant), AMARE” value ([1]; rate 500, evaluated after 15 d) was 20, the “damage to plant (100=total damage to plant; 0=no damage to plant), BIDPI” value ([1]; rate 130, evaluated after 15 d) was 0 and the “damage to plant (100=total damage to plant; 0=no damage to plant), BIDPI” value ([1]; rate 250, evaluated after 15 d) was 0. For the same compound, the “damage to plant (100=total damage to plant; 0=no damage to plant), BIDPI” value ([1]; rate 500, evaluated after 15 d) was 10, the “damage to plant (100=total damage to plant; 0=no damage to plant), BRAPL” value ([1]; rate 130, evaluated after 15 d) was 60 and the “damage to plant (100=total damage to plant; 0=no damage to plant), BRAPL” value ([1]; rate 250, evaluated after 15 d) was 70. The “damage to plant (100=total damage to plant; 0=no damage to plant), BRAPL” value ([1]; rate 500, evaluated after 15 d) was 80, the “damage to plant (100=total damage to plant; 0=no damage to plant), CYPES” value ([1]; rate 130, evaluated after 15 d) was 0 and the “damage to plant (100=total damage to plant; 0=no damage to plant), CYPES” value ([1]; rate 250, evaluated after 15 d) was 0. For the same compound, the “damage to plant (100=total damage to plant; 0=no damage to plant), CYPES” value ([1]; rate 500, evaluated after 15 d) was 0, the “damage to plant (100=total damage to plant; 0=no damage to plant), DIGSA” value ([1]; rate 130, evaluated after 15 d) was 60 and the “damage to plant (100=total damage to plant; 0=no damage to plant), DIGSA” value ([1]; rate 250, evaluated after 15 d) was 70. For the same compound, the “damage to plant (100=total damage to plant; 0=no damage to plant), DIGSA” value ([1]; rate 500, evaluated after 15 d) was 80, the “damage to plant (100=total damage to plant; 0=no damage to plant), ECHCG” value ([1]; rate 130, evaluated after 15 d) was 10 and the “damage to plant (100=total damage to plant; 0=no damage to plant), ECHCG” value ([1]; rate 250, evaluated after 15 d) was 20. For the same compound, the “damage to plant (100=total damage to plant; 0=no damage to plant), ECHCG” value ([1]; rate 500, evaluated after 15 d) was 70, the “damage to plant (100=total damage to plant; 0=no damage to plant), ELEIN” value ([1]; rate 130, evaluated after 15 d) was 10 and the “damage to plant (100=total damage to plant; 0=no damage to plant), ELEIN” value ([1]; rate 250, evaluated after 15 d) was 10. The “damage to plant (100=total damage to plant; 0=no damage to plant), ELEIN” value ([1]; rate 500, evaluated after 15 d) was 60, the “damage to plant (100=total damage to plant; 0=no damage to plant), EPHHL” value ([1]; rate 130, evaluated after 15 d) was 0 and the “damage to plant (100=total damage to plant; 0=no damage to plant), EPHHL” value ([1]; rate 250, evaluated after 15 d) was 10. For the same compound, the “damage to plant (100=total damage to plant; 0=no damage to plant), EPHHL” value ([1]; rate 500, evaluated after 15 d) was 30, the “damage to plant (100=total damage to plant; 0=no damage to plant), GLXMA” value ([1]; rate 130, evaluated after 15 d) was 0 and the “damage to plant (100=total damage to plant; 0=no damage to plant), GLXMA” value ([1]; rate 250, evaluated after 15 d) was 0. For the same compound, the “damage to plant (100=total damage to plant; 0=no damage to plant), GLXMA” value ([1]; rate 500, evaluated after 15 d) was 20, the “damage to plant (100=total damage to plant; 0=no damage to plant), IPOHE” value ([1]; rate 130, evaluated after 15 d) was 0 and the “damage to plant (100=total damage to plant; 0=no damage to plant), IPOHE” value ([1]; rate 250, evaluated after 15 d) was 0. For the same compound, the “damage to plant (100=total damage to plant; 0=no damage to plant), IPOHE” value ([1]; rate 500, evaluated after 15 d) was 20, the “damage to plant (100=total damage to plant; 0=no damage to plant), ORYSA” value ([1]; rate 130, evaluated after 15 d) was 0 and the “damage to plant (100=total damage to plant; 0=no damage to plant), ORYSA” value ([1]; rate 250, evaluated after 15 d) was 0. For the same compound, the “damage to plant (100=total damage to plant; 0=no damage to plant), ORYSA” value ([1]; rate 500, evaluated after 15 d) was 10, the “damage to plant (100=total damage to plant; 0=no damage to plant), PANMI” value ([1]; rate 130, evaluated after 15 d) was 0 and the “damage to plant (100=total damage to plant; 0=no damage to plant), PANMI” value ([1]; rate 250, evaluated after 15 d) was 10. The “damage to plant (100=total damage to plant; 0=no damage to plant), PANMI” value ([1]; rate 500, evaluated after 15 d) was 40, the “damage to plant (100=total damage to plant; 0=no damage to plant), SETFA” value ([1]; rate 130, evaluated after 15 d) was 0 and the “damage to plant (100=total damage to plant; 0=no damage to plant), SETFA” value ([1]; rate 250, evaluated after 15 d) was 50. The “damage to plant (100=total damage to plant; 0=no damage to plant), SETFA” value ([1]; rate 500, evaluated after 15 d) was 70, the “damage to plant (100=total damage to plant; 0=no damage to plant), SORVU” value ([1]; rate 130, evaluated after 15 d) was 0 and the “damage to plant (100=total damage to plant; 0=no damage to plant), SORVU” value ([1]; rate 250, evaluated after 15 d) was 0. The “damage to plant (100=total damage to plant; 0=no damage to plant), SORVU” value ([1]; rate 500, evaluated after 15 d) was 20, the “damage to plant (100=total damage; 0=no damage) ECHCG” value ([2]; Post-Emergence at 15.625 g/ha) was 60 and the “damage to plant (100=total damage; 0=no damage) ECHCG” value ([2]; Post-Emergence at 62.5 g/ha) was 70. The “damage to plant (100=total damage; 0=no damage) ECHCG” value ([2]; Post-Emergence at 250 g/ha) was 80, the “damage to plant (100=total damage; 0=no damage) ZEAMX” value ([3]; Post-Emergence at 15.625 g/ha) was 0 and the “damage to plant (100=total damage; 0=no damage) ZEAMX” value ([3]; Post-Emergence at 62.5 g/ha) was 0. For the same compound, the “damage to plant (100=total damage; 0=no damage) ZEAMX” value ([3]; Post-Emergence at 250 g/ha) was 10.
